Experimental data reported in article PMC10882719 (Frontiers in Neuroscience, 2024).
Read-outs that look alike come from different tables or passages of the source.

How the values were obtained:
Type in all cases: cell-based
168 GPCRs [1] = molecular target: T1, 168 GPCRs (Homo sapiens, UniProt Q9HBW0)
T1 construct: host or cells: PathHunter cell lines

168 GPCRs [2] = molecular target: T2, 168 GPCRs (Homo sapiens, UniProt P49683); conditions: PRLHR
T2 construct: host or cells: PathHunter cell lines
T2 sequence (P49683 1-370): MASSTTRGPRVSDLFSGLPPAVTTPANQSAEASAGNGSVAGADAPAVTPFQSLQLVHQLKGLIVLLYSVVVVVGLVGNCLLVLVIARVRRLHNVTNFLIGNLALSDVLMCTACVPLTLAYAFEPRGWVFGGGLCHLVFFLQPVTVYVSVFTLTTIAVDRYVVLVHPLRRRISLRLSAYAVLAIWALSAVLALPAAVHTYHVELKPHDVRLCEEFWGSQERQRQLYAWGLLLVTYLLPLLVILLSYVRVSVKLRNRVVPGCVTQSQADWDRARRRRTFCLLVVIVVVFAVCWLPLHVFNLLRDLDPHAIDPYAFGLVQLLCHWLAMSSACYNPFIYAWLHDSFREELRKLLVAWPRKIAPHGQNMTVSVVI

168 GPCRs [3] = molecular target: T3, 168 GPCRs (Homo sapiens, UniProt P43116); conditions: PTGER2
T3 construct: host or cells: PathHunter cell lines
T3 sequence (P43116 whole entry): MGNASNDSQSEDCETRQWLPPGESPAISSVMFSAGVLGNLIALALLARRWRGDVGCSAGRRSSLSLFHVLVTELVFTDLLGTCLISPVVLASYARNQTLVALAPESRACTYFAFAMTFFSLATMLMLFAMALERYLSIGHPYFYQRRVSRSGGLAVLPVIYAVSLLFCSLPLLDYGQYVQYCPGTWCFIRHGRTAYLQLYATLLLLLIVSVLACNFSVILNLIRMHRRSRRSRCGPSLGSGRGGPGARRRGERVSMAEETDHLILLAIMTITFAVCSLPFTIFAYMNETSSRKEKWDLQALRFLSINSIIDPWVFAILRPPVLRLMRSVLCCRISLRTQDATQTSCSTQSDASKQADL

168 GPCRs [4] = molecular target: T4, 168 GPCRs (Homo sapiens, UniProt Q9Y5Y4)
T4 construct: host or cells: PathHunter cell lines
T4 sequence (Q9Y5Y4 1-395): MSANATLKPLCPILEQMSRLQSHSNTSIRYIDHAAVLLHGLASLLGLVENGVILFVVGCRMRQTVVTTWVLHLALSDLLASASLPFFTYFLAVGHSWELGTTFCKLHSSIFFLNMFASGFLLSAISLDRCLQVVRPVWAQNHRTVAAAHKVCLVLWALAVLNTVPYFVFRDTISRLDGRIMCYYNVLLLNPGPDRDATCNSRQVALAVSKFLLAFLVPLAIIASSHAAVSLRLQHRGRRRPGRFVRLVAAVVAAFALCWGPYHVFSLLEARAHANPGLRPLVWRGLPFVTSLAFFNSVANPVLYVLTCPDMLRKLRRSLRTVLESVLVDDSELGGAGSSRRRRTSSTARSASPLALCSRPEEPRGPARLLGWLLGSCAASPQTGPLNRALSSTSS

168 GPCRs [5] = molecular target: T5, 168 GPCRs (Homo sapiens, UniProt P23945); conditions: FSHR
T5 construct: host or cells: PathHunter cell lines
T5 sequence (P23945 18-695): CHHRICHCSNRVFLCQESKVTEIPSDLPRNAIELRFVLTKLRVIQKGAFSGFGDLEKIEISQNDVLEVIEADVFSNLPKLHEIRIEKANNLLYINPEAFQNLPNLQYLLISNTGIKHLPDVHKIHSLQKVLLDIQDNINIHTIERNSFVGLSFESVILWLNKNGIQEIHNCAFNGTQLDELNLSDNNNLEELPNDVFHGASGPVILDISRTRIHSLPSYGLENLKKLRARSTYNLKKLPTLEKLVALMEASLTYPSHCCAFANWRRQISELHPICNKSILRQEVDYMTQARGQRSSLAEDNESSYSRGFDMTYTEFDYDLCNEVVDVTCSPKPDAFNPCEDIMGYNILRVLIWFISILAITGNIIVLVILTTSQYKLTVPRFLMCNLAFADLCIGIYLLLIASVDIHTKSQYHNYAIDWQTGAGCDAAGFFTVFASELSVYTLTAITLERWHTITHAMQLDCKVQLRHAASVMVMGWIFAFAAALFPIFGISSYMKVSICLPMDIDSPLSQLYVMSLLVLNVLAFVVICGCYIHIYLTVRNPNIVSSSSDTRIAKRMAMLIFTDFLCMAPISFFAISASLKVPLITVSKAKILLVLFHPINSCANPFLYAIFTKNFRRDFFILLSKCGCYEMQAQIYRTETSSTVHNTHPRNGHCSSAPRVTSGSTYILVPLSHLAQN

168 GPCRs [6] = molecular target: T6, 168 GPCRs (Homo sapiens, UniProt Q9H244); conditions: P2RY12
T6 construct: host or cells: PathHunter cell lines
T6 sequence (Q9H244 whole entry): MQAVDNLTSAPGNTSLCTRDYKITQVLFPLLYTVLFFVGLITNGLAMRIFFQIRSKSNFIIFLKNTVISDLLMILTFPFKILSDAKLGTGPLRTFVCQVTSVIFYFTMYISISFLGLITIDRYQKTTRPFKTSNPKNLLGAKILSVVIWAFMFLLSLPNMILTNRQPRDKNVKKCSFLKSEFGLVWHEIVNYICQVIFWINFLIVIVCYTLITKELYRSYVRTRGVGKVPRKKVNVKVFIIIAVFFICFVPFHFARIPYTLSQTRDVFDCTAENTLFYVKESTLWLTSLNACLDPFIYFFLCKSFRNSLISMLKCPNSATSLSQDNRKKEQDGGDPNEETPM

T1 sequence (Q9HBW0 whole entry): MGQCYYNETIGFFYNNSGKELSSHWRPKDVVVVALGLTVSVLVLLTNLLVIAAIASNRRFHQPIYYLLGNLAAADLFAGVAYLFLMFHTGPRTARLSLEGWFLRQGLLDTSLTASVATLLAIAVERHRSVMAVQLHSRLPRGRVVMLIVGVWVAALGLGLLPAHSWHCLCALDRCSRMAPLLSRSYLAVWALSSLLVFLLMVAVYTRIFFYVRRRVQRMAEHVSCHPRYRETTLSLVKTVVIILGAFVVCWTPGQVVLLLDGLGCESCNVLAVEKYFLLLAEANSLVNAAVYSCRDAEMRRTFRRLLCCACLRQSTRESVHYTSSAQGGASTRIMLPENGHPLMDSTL

## CNC(C)C(=O)c1ccc2c(c1)OCO2 (stereo not drawn) [methylone]
168 GPCRs [1]; EDG4, 1 uM
  % Agonist Activity: -2.2%
  % Antagonist Activity: -10.2%
168 GPCRs [1]; EDG4, 10 uM
  % Agonist Activity: -2.1%
  % Antagonist Activity: -21%
168 GPCRs [2]; Conc 1 uM
  % Agonist Activity: -2.2%
  % Antagonist Activity: 17.8%
168 GPCRs [2]; Conc 10 uM
  % Agonist Activity: -0.2%
  % Antagonist Activity: 15.8%
168 GPCRs [3]; Conc 1 uM
  % Agonist Activity: -1.4%
  % Antagonist Activity: 12.7%
168 GPCRs [3]; Conc 10 uM
  % Agonist Activity: -3.1%
  % Antagonist Activity: -4.4%
168 GPCRs [4]; CRTH2, 1 uM
  % Agonist Activity: -5.7%
  % Antagonist Activity: 9%
168 GPCRs [4]; CRTH2, 10 uM
  % Agonist Activity: -5%
  % Antagonist Activity: 8.9%
168 GPCRs [5]; 1 uM
  % Agonist Activity: -1%
  % Antagonist Activity: -11.8%
168 GPCRs [5]; 10 uM
  % Agonist Activity: -2.2%
  % Antagonist Activity: -8.4%
168 GPCRs [6]; Conc 1 uM
  % Agonist Activity: -1.5%
  % Antagonist Activity: -14.8%
168 GPCRs [6]; Conc 10 uM
  % Agonist Activity: -2.5%
  % Antagonist Activity: -10.4%

## CNC(C)Cc1ccc2c(c1)OCO2 (stereo not drawn) [MDMA, 3,4-Methylenedioxy methamphetamine, reference compound]
168 GPCRs [1]; EDG4, 1 uM
  % Agonist Activity: 1.5%
  % Antagonist Activity: 7.5%
168 GPCRs [1]; EDG4, 10 uM
  % Agonist Activity: 2.2%
  % Antagonist Activity: 10.2%
168 GPCRs [2]; Conc 1 uM
  % Agonist Activity: 1.5%
  % Antagonist Activity: 6%
168 GPCRs [2]; Conc 10 uM
  % Agonist Activity: -0.3%
  % Antagonist Activity: 10.8%
168 GPCRs [3]; Conc 1 uM
  % Agonist Activity: 0.7%
  % Antagonist Activity: -9.8%
168 GPCRs [3]; Conc 10 uM
  % Agonist Activity: 1.1%
  % Antagonist Activity: -12.8%
168 GPCRs [4]; CRTH2, 1 uM
  % Agonist Activity: -4.1%
  % Antagonist Activity: 19.8%
168 GPCRs [4]; CRTH2, 10 uM
  % Agonist Activity: -3%
  % Antagonist Activity: 17.2%
168 GPCRs [5]; 1 uM
  % Agonist Activity: 0.7%
  % Antagonist Activity: 3.2%
168 GPCRs [5]; 10 uM
  % Agonist Activity: -0.1%
  % Antagonist Activity: -5.8%
168 GPCRs [6]; Conc 1 uM
  % Agonist Activity: -1.6%
  % Antagonist Activity: 8.6%
168 GPCRs [6]; Conc 10 uM
  % Agonist Activity: -0.6%
  % Antagonist Activity: 5.9%
